Measured values reported in US20100160286A1, “HETEROARYLCARBAMOYLBENZENE DERIVATIVES FOR THE TREATMENT OF DIABETES” (ASTRAZENECA UK LIMITED AB, priority 2005, published 2010).

Columns and labels:
[1] = biological target: T1, recombinant human pancreatic GLK (Homo sapiens, UniProt P35557); assay: biochemical
T1 sequence (P35557 1-465): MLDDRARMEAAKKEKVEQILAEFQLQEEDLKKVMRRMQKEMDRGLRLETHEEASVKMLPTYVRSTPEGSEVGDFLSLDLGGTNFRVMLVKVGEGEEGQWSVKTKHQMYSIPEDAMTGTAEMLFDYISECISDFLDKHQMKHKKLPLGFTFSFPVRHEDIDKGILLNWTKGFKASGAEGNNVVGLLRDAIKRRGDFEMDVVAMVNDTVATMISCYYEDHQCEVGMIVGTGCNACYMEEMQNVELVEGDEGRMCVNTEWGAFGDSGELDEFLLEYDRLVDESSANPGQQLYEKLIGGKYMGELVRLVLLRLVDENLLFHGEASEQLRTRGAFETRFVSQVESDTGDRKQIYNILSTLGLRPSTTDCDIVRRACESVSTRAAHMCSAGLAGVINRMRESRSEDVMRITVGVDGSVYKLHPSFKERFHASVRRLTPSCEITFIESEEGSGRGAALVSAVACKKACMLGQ

Zucker obese fa/fa rats = assay: Oral Glucose Tolerance Test; type: in vivo, rat; details: 10 mg/kg; given orally 120 minutes before oral glucose 2 g/kg; Zucker obese fa/fa rats on high fat diet
Method: (2) Oral Glucose Tolerance Test (OGIT) Oral glucose tolerance tests were done on conscious Zucker obese fa/fa rats (age 12-13 weeks or older) fed a high fat diet (45% kcal fat) for at least two weeks prior to experimentation. The animals were fasted for 2 hours before use for experiments. A test compound or a vehicle was given orally 120 minutes before oral administration of a glucose solution at a dose of 2 g/kg body weight. Blood glucose levels were measured using a Accucheck glucometer from tail bled samples taken at different time points before and after administration of glucose (time course of […]). A time curve of the blood glucose levels was generated and the area-under-the-curve (AUC) for 120 minutes was calculated (the time of glucose administration being time zero). Percent reduction in glucose excursion was determined using the AUC in the vehicle-control group as zero percent reduction.

| Compound | EC50 [1] [µM] | effect in the Oral Glucose Tolerance Test (percent reduction in glucose excursion, AUC vs vehicle control) (Zucker obese fa/fa rats) [%] |
| --- | --- | --- |
| C#C[C@H](C)Oc1cc(Oc2ccc(C(=O)N3CCC3)cc2)cc(C(=O)Nc2ccn(C)n2)c1 [Example 7, 3-{[4-(Azetidin-1-ylcarbonyl)phenyl]oxy}-5-{[(15)-1-methylprop-2-yn-1-yl]oxy}-N-(1-methyl-1H-pyrazol-3-yl)benzamide] | 0.06 | – |
| Cn1ccc(NC(=O)c2cc(Oc3ccc(C(=O)N4CCC4)cc3)cc(O[C@H]3CCOC3)c2)n1 [Example 2, 3-{[4-(Azetidin-1-ylcarbonyl)phenyl]oxy}-N-(1-methyl-1H-pyrazol-3-yl)-5-[(3S)-tetrahydrofuran-3-yloxy]benzamide] | – | 42 |
